Legend:
PDGFRα = PDGFRα (Homo sapiens (Human), UniProt P16234); experiment: PDGFRα kinase enzyme assay (Promega PDGFRα Kinase Enzyme System, ADP-Glo); assay type: biochemical; details: 11-point dose response, 10,000 nM to 0.169 nM; 150 uM ATP; BLQ = below limit of quantitation; read-out: IC50 Values on PDGFRα Kinase Inhibition, IC50
Procedure: The PDGFRα enzyme assays were conducted per the manufacturer's directions (Promega PDGFRα Kinase Enzyme System and ADP Glo Assay Cat #V8011). […] 20 ng of purified PDGFRα protein was added to the test article. […] ADP-Glo was added to halt the kinase reaction and deplete the remaining ATP. Kinase detection reagent, containing luciferase and luciferin, was used to convert the ADP signal into luminescence. Luminescence was measured using a Molecular Devices Spectramax ID5 and compared to a standard curve to determine kinase activity. IC50s were calculated using Prism 9, Graphpad software.

[1] = test system: Oligodendrocyte progenitor cells (OPCs); experiment: In vitro OPC differentiation assay, GPR17 expression (immunocytochemistry); details: 3 μM (10× concentration, final 0.3 μM); 72 hours; fold change over vehicle
Procedure: To assess the effects of the PDGFRα inhibitors on OPC differentiation, primary OPCs were cultured and exposed to compounds. The number of newly generated oligodendrocytes was assessed by monitoring GPR17 expression. GPR17 is preferentially expressed in actively differentiating oligodendrocytes, allowing them to be distinguished from precursors and more differentiated oligodendrocytes.
Cortices from postnatal day (P) 1-3 rats were dissected and collected into ice cold Hank's Balanced Salt Solution (HBSS). […] Briefly, the cortical cell suspension was centrifuged and washed with buffer (0.5% BSA in PBS) and labeled with Anti-A2B^5 MicroBeads (10 μL beads per 1×10^7 cells) for 15 minutes at 4° C. Following the incubation, cells were washed once with BSA buffer to remove unlabeled beads. A2B^5 positive cells were eluted on the column using the AutoMACS® (Miltenyi, as per manufacturer's protocol using “Possel-s” program). Eluted cells were further washed twice with OPC growth media. Cell counts were performed using Countess III cell counter (ThermoFisher; AMQAX2000) and cells were plated.
The plates were allowed to sit at room temperature for 15 minutes to ensure proper dispersion of cells in a well. The plates were then transferred to the incubator (37° C.; 5% CO2).
Cells were then incubated for 72 hours at 37° C., 5% CO2 before immunostaining for GPR17 marker expression.
Following 72 hours in culture, cells were fixed with 4% paraformaldehyde for 15 minutes and then washed three times in Dulbecco's phosphate buffered saline (DPBS). Prior to immunostaining, cells were treated with a blocking solution (10% normal goat serum containing 1% BSA and 0.1% Triton® X-100 in DPBS) for 15 minutes at room temperature. Primary antibody (anti-GPR17 at 1:2000; Origene TA811615) was applied to cells overnight at 4° C. in incubation solution containing 1% normal goat serum, 1% BSA, and 0.1% Triton X-100 in DPBS. […] The secondary antibody was applied in incubation solution for 2 hours at room temperature, protected from light.
The number of differentiated GPR17+ cells was normalized to the total nuclei count and percent differentiated GPR17+ cells were reported. Statistical analysis was done using one-way ANOVA with multiple comparisons and post-hoc Tukey test in GraphPad Prism (GraphPad Software).

PDGFRα, sequence (P16234 24-1089): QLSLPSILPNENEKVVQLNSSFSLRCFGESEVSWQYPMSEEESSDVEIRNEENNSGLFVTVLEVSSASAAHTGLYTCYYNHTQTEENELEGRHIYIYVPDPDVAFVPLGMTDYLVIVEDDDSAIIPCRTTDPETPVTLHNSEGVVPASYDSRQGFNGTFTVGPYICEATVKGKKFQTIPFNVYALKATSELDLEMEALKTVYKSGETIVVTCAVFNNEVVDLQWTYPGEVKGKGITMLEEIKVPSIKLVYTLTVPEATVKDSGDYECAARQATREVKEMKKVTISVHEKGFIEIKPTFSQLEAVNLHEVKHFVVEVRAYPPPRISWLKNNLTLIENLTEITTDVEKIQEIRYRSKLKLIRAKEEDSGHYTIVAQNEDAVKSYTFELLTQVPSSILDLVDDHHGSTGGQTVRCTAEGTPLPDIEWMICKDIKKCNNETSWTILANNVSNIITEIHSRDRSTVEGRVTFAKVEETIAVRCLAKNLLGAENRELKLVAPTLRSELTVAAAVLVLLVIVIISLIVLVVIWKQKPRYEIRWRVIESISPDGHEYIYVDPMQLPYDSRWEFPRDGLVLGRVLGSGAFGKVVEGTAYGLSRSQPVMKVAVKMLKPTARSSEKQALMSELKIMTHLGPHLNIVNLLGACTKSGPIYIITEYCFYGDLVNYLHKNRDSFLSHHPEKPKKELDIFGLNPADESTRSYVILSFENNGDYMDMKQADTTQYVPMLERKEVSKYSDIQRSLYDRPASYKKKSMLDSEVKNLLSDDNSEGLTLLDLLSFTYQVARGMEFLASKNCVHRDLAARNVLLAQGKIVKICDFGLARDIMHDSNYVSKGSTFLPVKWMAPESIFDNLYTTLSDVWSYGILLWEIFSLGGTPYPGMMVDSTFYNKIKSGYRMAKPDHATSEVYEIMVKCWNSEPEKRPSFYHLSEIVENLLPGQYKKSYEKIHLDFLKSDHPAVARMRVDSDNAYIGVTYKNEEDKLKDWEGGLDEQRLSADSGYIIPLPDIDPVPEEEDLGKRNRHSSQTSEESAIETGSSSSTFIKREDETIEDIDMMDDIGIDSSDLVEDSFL

| Compound | IC50 (PDGFRα) [µM] | GPR17 Fold Induction (Over Vehicle; 3 μM) [1] |
| --- | --- | --- |
| Cn1cc(-c2ccc3c(N4CC(c5ncc(Cc6ccccc6)cn5)C4)cnn3c2)cn1 [Compound 72, 3-[3-(5-benzylpyrimidin-2-yl)azetidin-1-yl]-6-(1-methyl-1H-pyrazol-4-yl)pyrazolo[1,5-a]pyridine] | 2.97 | 4.75 |
| Cn1cc(-c2ccc3c(C4CCN(c5ncc(Cc6ccccc6)cn5)C4)cnn3c2)cn1 (stereo not shown) [Compound 75, 3-[1-(5-benzylpyrimidin-2-yl)pyrrolidin-3-yl]-6-(1-methyl-1H-pyrazol-4-yl)pyrazolo[1,5-a]pyridine] | 6.59 | 3.34 |
| Cn1cc(-c2ccc3c(-c4ccn(-c5ncc(Cc6ccccc6)cn5)c4)cnn3c2)cn1 [Compound 76, 3-[1-(5-benzylpyrimidin-2-yl)-1H-pyrrol-3-yl]-6-(1-methyl-1H-pyrazol-4-yl)pyrazolo[1,5-a]pyridine] | 0.923 | 6.18 |
| C[C@@H](OC(=O)N1CCN(c2cnn3cc(-c4cnn(C)c4)ccc23)CC1)c1ccccc1F [Compound 81, (1R)-1-(2-Fluorophenyl)ethyl 4-[6-(1-methyl-1H-pyrazol-4-yl)pyrazolo[1,5-a]pyridin-3-yl]piperazine-1-carboxylate] | 0.0972 | 6.74 |
| [2H]c1c([2H])c([2H])c(C([2H])([2H])c2cnc(N3CCN(c4cnn5cc(-c6cnn(C)c6)ccc45)CC3)nc2)c([2H])c1[2H] [Compound 82] | 2.51 | 6.50 |
| Cn1cc(-c2cc3ncc(N4CCN(C(=O)OC(C)(C)C)CC4)n3cn2)cn1 [Compound 83, tert-butyl 4-(7-(1-methyl-1H-pyrazol-4-yl)imidazo[1,2-c]pyrimidin-3-yl)piperazine-1-carboxylate] | 0.948 | 6.49 |
| Cn1cc(-c2cc3ncc(N4CCCN(C(=O)OC(C)(C)C)CC4)n3cn2)cn1 [Compound 85, tert-butyl 4-(7-(1-methyl-1H-pyrazol-4-yl)imidazo[1,2-c]pyrimidin-3-yl)-1,4-diazepane-1-carboxylate] | 1.57 | 0.82 |
| COCCn1cc(-c2cc3ncc(N4CCN(C(=O)OC(C)(C)C)CC4)n3cn2)cn1 [Compound 88, tert-butyl 4-(7-(1-(2-methoxyethyl)-1H-pyrazol-4-yl)imidazo[1,2-c]pyrimidin-3-yl)piperazine-1-carboxylate] | 1.6 | 2.90 |
| CC(C)(C)OC(=O)N1CCN(c2cnc3cc(C4CCOC4)ncn23)CC1 (stereo not shown) [Compound 90, tert-butyl 4-(7-(tetrahydrofuran-3-yl)imidazo[1,2-c]pyrimidin-3-yl)piperazine-1-carboxylate] | > 10 | 0.92 |
| CC(C)(C)OC(=O)N1CCCN(c2cnc3cc(-c4cccnc4)ncn23)CC1 [Compound 92, tert-butyl 4-(7-(pyridin-3-yl)imidazo[1,2-c]pyrimidin-3-yl)-1,4-diazepane-1-carboxylate] | > 10 | 0.81 |
| CC(C)(C)OC(=O)N1CCCN(c2cnc3cc(C4CCOC4)ncn23)CC1 (stereo not shown) [Compound 94, tert-butyl 4-(7-(tetrahydrofuran-3-yl)imidazo[1,2-c]pyrimidin-3-yl)-1,4-diazepane-1-carboxylate] | > 10 | 1.00 |
| CN(CCN(C)c1cnc2cc(-c3cnn(C)c3)ncn12)C(=O)OC(C)(C)C [Compound 95, tert-butyl methyl(2-(methyl(7-(1-methyl-1H-pyrazol-4-yl)imidazo[1,2-c]pyrimidin-3-yl)amino)ethyl)carbamate] | > 10 | 1.16 |
| CN(CCN(C)c1cnc2nc(-c3cnn(C)c3)ccn12)C(=O)OC(C)(C)C [Compound 96] | > 10 | 0.50 |
| COCCn1cc(-c2cc3ncc(N(C)CCN(C)C(=O)OC(C)(C)C)n3cn2)cn1 [Compound 97, tert-butyl (2-((7-(1-(2-methoxyethyl)-1H-pyrazol-4-yl)imidazo[1,2-c]pyrimidin-3-yl)(methyl)amino)ethyl)(methyl)carbamate] | > 10 | 1.25 |
| CN(CCN(C)c1cnc2nc(C3CCOC3)ccn12)C(=O)OC(C)(C)C (stereo not shown) [Compound 98] | > 10 | 0.98 |
| CN(CCN(C)c1cnc2cc(-c3cccnc3)ncn12)C(=O)OC(C)(C)C [Compound 99, tert-butyl methyl(2-(methyl(7-(pyridin-3-yl)imidazo[1,2-c]pyrimidin-3-yl)amino)ethyl)carbamate] | > 10 | 0.62 |

| Compound | IC50 (PDGFRα) [µM] | GPR17 Fold Induction (Over Vehicle; 3 μM) [1] |
| --- | --- | --- |
| CN(CCN(C)c1cnc2nc(C3CCOC3)ccn12)C(=O)OC(C)(C)C (stereo not shown) [Compound 100] | > 10 | 0.83 |
| COCCn1cc(-c2ccn3c(N4CCN(C(=O)OC(C)(C)C)CC4)cnc3n2)cn1 [Compound 101, tert-butyl 4-(7-(1-(2-methoxyethyl)-1H-pyrazol-4-yl)imidazo[1,2-a]pyrimidin-3-yl)piperazine-1-carboxylate] | 3.42 | 0.67 |
| CC(C)(C)OC(=O)N1CCN(c2cnc3nc(-c4cccnc4)ccn23)CC1 [Compound 102, tert-butyl 4-(7-(pyridin-3-yl)imidazo[1,2-a]pyrimidin-3-yl)piperazine-1-carboxylate] | 6.98 | 0.58 |
| CC(C)(C)OC(=O)N1CCN(c2cnc3nc(C4CCOC4)ccn23)CC1 (stereo not shown) [Compound 103, tert-butyl 4-(7-(tetrahydrofuran-3-yl)imidazo[1,2-a]pyrimidin-3-yl)piperazine-1-carboxylate] | > 10 | 0.65 |
| Cc1cn(-c2ccn3c(N4CCN(C(=O)OC(C)(C)C)CC4)cnc3n2)cn1 [Compound 104, tert-butyl 4-(7-(4-methyl-1H-imidazol-1-yl)imidazo[1,2-a]pyrimidin-3-yl)piperazine-1-carboxylate] | 2.8 | 1.40 |
| COCCn1cc(-c2ccn3c(N4CCCN(C(=O)OC(C)(C)C)CC4)cnc3n2)cn1 [Compound 105, tert-butyl 4-(7-(1-(2-methoxyethyl)-1H-pyrazol-4-yl)imidazo[1,2-a]pyrimidin-3-yl)-1,4-diazepane-1-carboxylate] | > 10 | 0.46 |
| CC(C)(C)OC(=O)N1CCCN(c2cnc3nc(-c4cccnc4)ccn23)CC1 [Compound 106] | > 10 | 0.72 |
| CC(C)(C)OC(=O)N1CCCN(c2cnc3nc(C4CCOC4)ccn23)CC1 (stereo not shown) [Compound 107, tert-butyl 4-(7-(tetrahydrofuran-3-yl)imidazo[1,2-a]pyrimidin-3-yl)-1,4-diazepane-1-carboxylate] | > 10 | 0.58 |
| CN(CCN(C)c1cnc2nc(-c3cnn(C)c3)ccn12)C(=O)OC(C)(C)C [Compound 108, tert-butyl methyl(2-(methyl(7-(1-methyl-1H-pyrazol-4-yl)imidazo[1,2-a]pyrimidin-3-yl)amino)ethyl)carbamate] | > 10 | 0.54 |
| COCCn1cc(-c2ccn3c(N(C)CCN(C)C(=O)OC(C)(C)C)cnc3n2)cn1 [Compound 109, tert-butyl (2-((7-(1-(2-methoxyethyl)-1H-pyrazol-4-yl)imidazo[1,2-a]pyrimidin-3-yl)(methyl)amino)ethyl)(methyl)carbamate] | > 10 | 1.38 |
| Cn1cc(-c2ccn3c(N4CCC(C(=O)OC(C)(C)C)C4)cnc3n2)cn1 (stereo not shown) [Compound 110, tert-butyl 1-(7-(1-methyl-1H-pyrazol-4-yl)imidazo[1,2-a]pyrimidin-3-yl)pyrrolidine-3-carboxylate] | > 10 | 0.85 |
| Cc1cn(-c2ccn3c(N4CCCN(C(=O)OC(C)(C)C)CC4)cnc3n2)cn1 [Compound 111, tert-butyl 4-(7-(4-methyl-1H-imidazol-1-yl)imidazo[1,2-a]pyrimidin-3-yl)-1,4-diazepane-1-carboxylate] | > 10 | 0.60 |
| CN(CCN(C)c1cnc2nc(-c3cccnc3)ccn12)C(=O)OC(C)(C)C [Compound 112] | > 10 | 0.91 |
| Cn1cc(-c2cc3ncc(N4CCN(c5ncc(Cc6ccccc6)cn5)CC4)n3cn2)cn1 [Compound 113, 3-(4-(5-benzylpyrimidin-2-yl)piperazin-1-yl)-7-(1-methyl-1H-pyrazol-4-yl)imidazo[1,2-c]pyrimidine] | > 10 | 0.57 |
| Cn1cc(-c2cc3ncc(N4CCCN(c5ncc(Cc6ccccc6)cn5)CC4)n3cn2)cn1 [Compound 114, 3-(4-(5-benzylpyrimidin-2-yl)-1,4-diazepan-1-yl)-7-(1-methyl-1H-pyrazol-4-yl)imidazo[1,2-c]pyrimidine] | > 10 | 0.33 |
| C[C@@H](OC(=O)N1CCN(c2cnc3cc(-c4cnn(C)c4)ncn23)CC1)c1ccccc1 [Compound 115, (R)-1-phenylethyl 4-(7-(1-methyl-1H-pyrazol-4-yl)imidazo[1,2-c]pyrimidin-3-yl)piperazine-1-carboxylate] | > 10 | 2.46 |

Reference: patent publication US20250129067A1 (Progentos Therapeutics, Inc., priority 2021, published 2025)
